# Test results published in US20140135319A1, “6-SUBSTITUTED IMIDAZOPYRAZINES FOR USE AS MPS-1 AND TKK INHIBITORS IN THE TREATMENT OF HYPERPROLIFERATIVE DISORDERS” (BAYER INTELLECTUAL PROPERTY GMBH, priority 2010, published 2014).
# Biological target: T1, human kinase Mps-1 (Homo sapiens, UniProt P33981)
# T1 construct: N-terminally GST-tagged human full length recombinant Mps-1 kinase; GST (N); purchased Invitrogen, Karslruhe, Germany PV4071
# T1 sequence (P33981 1-857): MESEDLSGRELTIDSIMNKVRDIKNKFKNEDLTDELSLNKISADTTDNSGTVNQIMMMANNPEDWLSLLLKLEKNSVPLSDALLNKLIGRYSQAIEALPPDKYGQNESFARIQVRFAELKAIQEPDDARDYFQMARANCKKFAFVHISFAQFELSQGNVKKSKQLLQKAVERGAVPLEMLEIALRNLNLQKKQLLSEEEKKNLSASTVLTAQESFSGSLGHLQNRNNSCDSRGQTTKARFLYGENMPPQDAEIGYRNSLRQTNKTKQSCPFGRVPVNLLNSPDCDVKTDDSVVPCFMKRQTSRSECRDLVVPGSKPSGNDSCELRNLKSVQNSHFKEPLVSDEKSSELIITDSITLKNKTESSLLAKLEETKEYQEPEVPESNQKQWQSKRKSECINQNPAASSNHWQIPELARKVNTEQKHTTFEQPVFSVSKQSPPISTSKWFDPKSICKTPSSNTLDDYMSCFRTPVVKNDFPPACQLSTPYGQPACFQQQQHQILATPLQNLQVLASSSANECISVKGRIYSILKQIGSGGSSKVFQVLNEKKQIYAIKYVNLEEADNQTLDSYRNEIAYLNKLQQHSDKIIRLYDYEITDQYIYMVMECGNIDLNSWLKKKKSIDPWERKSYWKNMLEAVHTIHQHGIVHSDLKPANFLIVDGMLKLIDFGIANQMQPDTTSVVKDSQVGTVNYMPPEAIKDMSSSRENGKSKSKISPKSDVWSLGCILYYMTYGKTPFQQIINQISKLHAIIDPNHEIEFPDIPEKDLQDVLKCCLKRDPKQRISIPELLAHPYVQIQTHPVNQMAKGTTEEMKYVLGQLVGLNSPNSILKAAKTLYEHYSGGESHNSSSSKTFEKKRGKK
# Experiment: Mps-1 kinase assay (TR-FRET)
# Format: biochemical
# Settings: GST-tagged human full length recombinant Mps-1; 10 μM ATP; 1 μM peptide substrate; 60 min at 22° C.
# In short: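 N-terminally GST-tagged full-length recombinant human Mps-1, about 1 nM final, phosphorylates a biotinylated peptide. Product detected by TR-FRET from Eu-anti-phospho-Ser/Thr antibody to streptavidin-XLent after 1 h at 22° C.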
row,IC50 [nM],SMILES
1,6.9,"CC(C)CNc1nc(CCC(C)(C)O)cn2c(-c3ccc(C(=O)NC4CC4)cc3)cnc12 [Example 7-1, N-cyclopropyl-4-{6-(3-hydroxy-3-methylbutyl)-8-[(2-methylpropyl)amino]imidazo[1,2-a]pyrazin-3-yl}benzamide]"
2,95.5,"O=C(NC1CC1)c1ccc(-c2cnc3c(NCC4CCCO4)nc(-c4ccn[nH]4)cn23)cc1F (stereo not drawn) [Example 1-63, N-cyclopropyl-2-fluoro-4-{6-(1H-pyrazol-5-yl)-8-[(tetrahydrofuran-2-ylmethyl)amino]imidazo [1,2-a]pyrazin-3-yl} benzamide]"
3,3.4,"CC(C)CNc1nc(-c2ccsc2)cn2c(-c3ccc(C(=O)NC4CC4)cc3)cnc12 [Example 1-10, N-cyclopropyl-4-{8-[(2-methylpropyl)amino]-6-(thiophen-3-yl)imidazo [1,2-a]pyrazin-3-yl} benzamide]"
